Results published in patent US10745382B2 (BRISTOL-MYERS SQUIBB COMPANY, priority 2015, dated 2020).

The compounds below were run against T1, PD-1/PD-L1 (Homo sapiens, UniProt Q9NZQ7) (assay: PD-1/PD-L1 Homogenous Time-Resolved Fluorescence (HTRF) binding assay). Details: PD-L1-His 10 nM, PD-1-Ig 20 nM; numeric IC50; read-out: Range or IC50.
T1 construct: made in house; host or cells: HEK293T
Outline: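 dPBS + 0.1% BSA + 0.05% Tween-20 buffer; Eu-cryptate anti-Ig 1 nM final, APC anti-His 20 nM final; HTRF read. Counter-assays: PD-1-Ig/PD-L2-His 20 & 5 nM, CD80-His/PD-L1-Ig 100 & 10 nM.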

T1 sequence (Q9NZQ7 with tags, fused parts or gaps): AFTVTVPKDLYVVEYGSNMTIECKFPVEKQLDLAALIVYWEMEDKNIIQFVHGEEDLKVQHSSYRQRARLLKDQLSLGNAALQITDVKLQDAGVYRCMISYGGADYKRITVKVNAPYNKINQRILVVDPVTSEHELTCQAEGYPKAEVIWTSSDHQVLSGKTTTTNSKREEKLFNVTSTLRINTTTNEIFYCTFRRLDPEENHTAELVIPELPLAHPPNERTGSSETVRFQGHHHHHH

IC50 [nM] | Structure (SMILES)
11 | CCNC(=O)c1cccc(-c2cccc(COc3cc(OCc4cncc(C#N)c4)c(CNC(C)(CO)CO)cc3Cl)c2C)c1C [Example 4010, 3′-((2-chloro-5-((5-cyanopyridin-3-yl)methoxy)-4-(((1,3-dihydroxy-2-methylpropan-2-yl)amino)methyl)phenoxy)methyl)-N-ethyl-2,2′-dimethyl-[1,1′-biphenyl]-3-carboxamide]

Same assay, conditions: PD-L1-His 10 nM, PD-1-Ig 20 nM; value given as range class; read-out: Range or IC50

IC50 [nM] | Structure (SMILES)
0.21 to 10 | N#Cc1cncc(COc2cc(OCc3cccc(-c4cccc(OCCCN5CCCCC5)c4Cl)c3Cl)c(Cl)cc2CN2CCCC[C@H]2C(=O)O)c1 [Example 2045, (S)-1-(5-chloro-2-((5-cyanopyridin-3-yl)methoxy)-4-((2,2′-dichloro-3′-(3-(piperidin-1-yl)propoxy)-[1,1′-biphenyl]-3-yl)methoxy)benzyl)piperidine-2-carboxylic Acid]
0.21 to 10 | COCC(COC)NCc1cc(Cl)c(OCc2cccc(-c3cccc(OCCCN4CC[C@@H](O)C4)c3Cl)c2C)cc1OCc1cncc(C#N)c1 [Example 2109, (R)-5-((4-chloro-5-((2′-chloro-3′-(3-(3-hydroxypyrrolidin-1-yl)propoxy)-2-methyl-[1,1′-biphenyl]-3-yl)methoxy)-2-(((1,3-dimethoxypropan-2-yl)amino)methyl)phenoxy)methyl)nicotinonitrile]
10 to 100 | CCNC(=O)c1cccc(-c2cccc(COc3cc(OCc4cncc(C#N)c4)c(CNC(CO)CO)cc3Cl)c2C)c1C [Example 4009, 3′-((2-chloro-5-((5-cyanopyridin-3-yl)methoxy)-4-(((1,3-dihydroxypropan-2-yl)amino)methyl)phenoxy)methyl)-N-ethyl-2,2′-dimethyl-[1,1′-biphenyl]-3-carboxamide]
0.21 to 10 | Cc1c(OCCCN2CC[C@@H](O)C2)cccc1-c1cccc(COc2cc(OCc3cncc(C#N)c3)c(CNC(C)(CO)CO)cc2Cl)c1Cl [Example 2305, (R)-5-((4-chloro-5-((2-chloro-3′-(3-(3-hydroxypyrrolidin-1-yl)propoxy)-2′-methyl-[1,1′-biphenyl]-3-yl)methoxy)-2-(((1,3-dihydroxy-2-methylpropan-2-yl)amino)methyl)phenoxy)methyl)nicotinonitrile]
0.21 to 10 | Cc1c(COc2cc(OCc3cncc(S(C)(=O)=O)c3)c(CN[C@](C)(CO)C(=O)O)cc2Cl)cccc1-c1cccc(OCCCN2CC(O)C(C(=O)O)C2)c1C (stereo partly drawn) [Example 1075, 1-(3-((3′-((4-((((R)-2-carboxy-1-hydroxypropan-2-yl)amino)methyl)-2-chloro-5-((5-(methylsulfonyl)pyridin-3-yl)methoxy)phenoxy)methyl)-2,2′-dimethyl-[1,1′-biphenyl]-3-yl)oxy)propyl)-4-hydroxypyrrolidine-3-carboxylic Acid]
0.21 to 10 | Cc1c(COc2cc(OCc3cncc(C#N)c3)c(CNC(CO)CO)cc2Cl)cccc1-c1cccc(NC(=O)CNC2CC2)c1C [Example 2347, N-(3′-((2-chloro-5-((5-cyanopyridin-3-yl)methoxy)-4-(((1,3-dihydroxypropan-2-yl)amino)methyl)phenoxy)methyl)-2,2′-dimethyl-[1,1′-biphenyl]-3-yl)-2-(cyclopropylamino)acetamide]
0.21 to 10 | Cc1c(COc2cc(OCc3cncc(C#N)c3)c(CNC(CO)CO)cc2Cl)cccc1-c1cccc(OCCCN2CC[C@@H](O)C2)c1Cl [Example 2035, (R)-5-((4-chloro-5-((2′-chloro-3′-(3-(3-hydroxypyrrolidin-1-yl)propoxy)-2-methyl-[1,1′-biphenyl]-3-yl)methoxy)-2-(((1,3-dihydroxypropan-2-yl)amino)methyl)phenoxy)methyl)nicotinonitrile]
0.21 to 10 | COC(=O)C1(O)CCN(CCCOc2cccc(-c3cccc(COc4cc(OCc5cncc(C#N)c5)c(CN[C@](C)(CO)C(=O)O)cc4Cl)c3C)c2C)CC1 [Example 1030, (R)-2-((5-chloro-2-((5-cyanopyridin-3-yl)methoxy)-4-((3′-(3-(4-hydroxy-4-(methoxycarbonyl)piperidin-1-yl)propoxy)-2,2′-dimethyl-[1,1′-biphenyl]-3-yl)methoxy)benzyl)amino)-3-hydroxy-2-methylpropanoic Acid]
0.21 to 10 | CC(C)=CCOc1cc(OCc2cccc(-c3cccc(OCCCN4CC[C@@H](O)C4)c3C)c2Cl)c(Cl)cc1CNC(CO)CO [Example 2321, (R)-2-((5-chloro-4-((2-chloro-3′-(3-(3-hydroxypyrrolidin-1-yl)propoxy)-2′-methyl-[1,1′-biphenyl]-3-yl)methoxy)-2-((3-methylbut-2-en-1-yl)oxy)benzyl)amino)propane-1,3-diol]
10 to 100 | Cc1c(COc2cc(OCc3cncc(C#N)c3)c(CN[C@H](CO)C(=O)O)cc2Cl)cccc1-c1cccc(OCC(=O)N2CC[C@@H](O)C2)c1 [Example 1006, (R)-2-((5-chloro-2-((5-cyanopyridin-3-yl)methoxy)-4-((3′-(2-((R)-3-hydroxypyrrolidin-1-yl)-2-oxoethoxy)-2-methyl-[1,1′-biphenyl]-3-yl)methoxy)benzyl)amino)-3-hydroxypropanoic Acid]
10 to 100 | Cc1c(COc2cc(OCc3cncc(C#N)c3)c(CN(CCO)CCCO)cc2Cl)cccc1-c1cccc(CN(C)CCN2CCS(=O)(=O)CC2)c1C [Example 4085, 5-((4-chloro-5-((3′-(((2-(1,1-dioxidothiomorpholino)ethyl)(methyl)amino)methyl)-2,2′-dimethyl-[1,1′-biphenyl]-3-yl)methoxy)-2-(((2-hydroxyethyl)(3-hydroxypropyl)amino)methyl)phenoxy)methyl)nicotinonitrile]
0.21 to 10 | Cc1c(COc2cc(OCc3cncc(C#N)c3)c(CN3CC[C@H](O)C3)cc2Cl)cccc1-c1ccc2c(c1)OC(CCN1CC[C@H](O)C1)CO2 (mixture of isomers) [Example 1501, 5-((4-chloro-5-((3-(3-(2-((S)-3-hydroxypyrrolidin-1-yl)ethyl)-2,3-dihydrobenzo[b][1,4]dioxin-6-yl)-2-methylbenzyl)oxy)-2-(((S)-3-hydroxypyrrolidin-1-yl)methyl)phenoxy)methyl)nicotinonitrile]
0.21 to 10 | Cc1c(COc2cc(OCc3cncc(C#N)c3)c(CNC(C)(CO)CO)cc2Cl)cccc1-c1cccc(CNCCN2CCOCC2)c1Cl [Example 2092, 5-((4-chloro-5-((2′-chloro-2-methyl-3′-(((2-morpholinoethyl)amino)methyl)-[1,1′-biphenyl]-3-yl)methoxy)-2-(((1,3-dihydroxy-2-methylpropan-2-yl)amino)methyl)phenoxy)methyl)nicotinonitrile]
0.21 to 10 | Cc1c(OCCCN2CC[C@@H](O)C2)cccc1-c1cccc(COc2cc(OCC(=N)N3CC[C@@H](O)C3)c(CNC(CO)CO)cc2Cl)c1Cl [Example 2315, 2-((5-chloro-4-((2-chloro-3′-(3-((R)-3-hydroxypyrrolidin-1-yl)propoxy)-2′-methyl-[1,1′-biphenyl]-3-yl)methoxy)-2-(2-((R)-3-hydroxypyrrolidin-1-yl)-2-iminoethoxy)benzyl)amino)propane-1,3-diol]
0.21 to 10 | Cc1c(COc2cc(OCc3cncc(C#N)c3)c(CN[C@@H](CO)C(=O)O)cc2Cl)cccc1-c1cccc(OCCCN2CCC(O)C2)c1C#N (stereo in doubt) [Example 3009, (S)-2-((5-chloro-4-((2′-cyano-3′-(3-((R)-3-hydroxypyrrolidin-1-yl)propoxy)-2-methyl-[1,1′-biphenyl]-3-yl)methoxy)-2-((5-cyanopyridin-3-yl)methoxy)benzyl)amino)-3-hydroxypropanoic Acid]
